# Source: patent US7678918B2, “Intermediates for imidazonaphthyridines” (3M Innovative Properties Company, priority 1997, dated 2010)
# How the values were obtained:
# IFN = test: Cytokine Induction in Human Cells: interferon (IFN) secreted by PBMCs, A549/encephalomyocarditis bioassay; format: cell-based; conditions: 18 to 24 hours
# From the text: (§1) An in vitro human blood cell system was used to assess cytokine induction by compounds of the invention. Activity is based on the measurement of interferon and tumor necrosis factor (ℑ) (IFN and TNF, respectively) secreted into culture media as described by Testerman et. al. In “Cytokine Induction by the Immunomodulators Imiquimod and S-27609”, Journal of Leukocyte Biology, 58, 365-372 (September, 1995). Blood Cell Preparation for Culture
# (§2) Whole blood is collected by venipuncture into EDTA vacutainer tubes from healthy human donors. Peripheral blood mononuclear cells (PBMCs) are separated from whole blood by Histopaque®-1077 (Sigma Chemicals, St. Louis, Mo.) density gradient centrifugation. The PBMCs are suspended at 1.5-2×10^6 cells/mL in RPMI 1640 medium containing 10% fetal bovine serum, 2 mM L-glutamine and 1% penicillin/streptomycin solution (RPMI complete). 1 mL portions of PBMC suspension are added to 24 well flat bottom sterile tissue culture plates.
# (§3) The compounds are solubilized in dimethyl sulfoxide (DMSO). The DMSO concentration should not exceed a final concentration of 1% for addition to the culture wells. The compounds are generally tested in a concentration range of from 0.1 to 100 μM.
# (§4) The solution of test compound is added to the wells containing 1 mL of PBMCs in media. The plates are covered with plastic lids, mixed gently and then incubated for 18 to 24 hours at 37° C. with a 5% carbon dioxide atmosphere.
# (§5) Following incubation the plates are centrifuged for 5-10 minutes at 1000 rpm (˜200×g) at 4° C. The cell culture supernatant is removed with a sterile polypropylene pipet and transferred to a 2 mL sterile cryotube. Samples are maintained at −70° C. until analysis.
# Interferon is determined by bioassay using A549 human lung carcinoma cells challenged with encephalomyocarditis. The details of the bioassay method have been described by G. L. Brennan and L. H. Kronenberg in “Automated Bioassay of Interferons in Micro-test Plates”, Biotechniques, June/July 78, 1983, incorporated herein by reference. Briefly stated the method is as follows: A549 cells are incubated with samples and standard interferon dilutions at 37° C. for 24 hours. The incubated cells are then infected with an inoculum of encephalomyocarditis virus. The infected cells are incubated for an additional 24 hours at 37° C. before quantifying for viral cytopathic effect. The viral cytopathic effect is quantified by staining followed by visual scoring of the plates. Results are expressed as alpha reference units/mL based on the value obtained for NIH Human Leukocyte IFN standard.
# TNF = test: Cytokine Induction in Human Cells: tumor necrosis factor (TNF) secreted by PBMCs, ELISA; format: cell-based; conditions: 18 to 24 hours
# From the text: as §1, §2, §3, §4, §5
# Tumor necrosis factor (ℑ) (TNF) concentration is determined using an ELISA kit available from Genzyme, Cambridge, Mass. The results are expressed as pg/mL.
# Further: call rule not given here.
Compound,IFN induction (IFN; Dose Concentration 0.1 μM),IFN induction (IFN; Dose Concentration 1.0 μM),IFN induction (IFN; Dose Concentration 10.0 μM),IFN induction (IFN; Dose Concentration 100.0 μM),TNF induction (TNF; Dose Concentration 0.1 μM),TNF induction (TNF; Dose Concentration 1.0 μM),TNF induction (TNF; Dose Concentration 10.0 μM),TNF induction (TNF; Dose Concentration 100.0 μM)
CCCCc1nc2c(N)nc3cccnc3c2n1CCCCNC(=O)C1(c2ccc(Cl)cc2)CCCC1 [Example 155],−,+,+,+,−,−,+,+
"CCCCc1nc2c(N)nc3cccnc3c2n1CCCCNC(=O)c1ccccc1 [Example 52, N-[4-(4-Amino-2-butyl-1H-imidazo[4,5-c][1,5]naphthyridin-1-yl)butyl]benzamide]",,+,+,−,,+,+,−
CCCCc1nc2c(N)nc3cccnc3c2n1CCNC(=O)C1CC1 [Example 136],,+,+,+,,−,+,+
CCCCc1nc2c(N)nc3cccnc3c2n1CCCCNC(=O)C1CCCC1 [Example 174],+,+,+,+,+,+,+,−
CCCCCCCCCCCC(=O)NCCn1c(CCCC)nc2c(N)nc3cccnc3c21 [Example 201],−,−,−,−,−,−,−,+
CCCCCCCOc1ccc(C(=O)NCCn2c(CCCC)nc3c(N)nc4cccnc4c32)cc1 [Example 149],−,−,−,−,−,−,−,−
CCCCc1nc2c(N)nc3cccnc3c2n1CCCCNC(=O)CCC1CCCC1 [Example 175],−,+,+,−,−,+,+,−
CCCCc1nc2c(N)nc3cccnc3c2n1CCCCNC(=O)COCc1ccccc1 [Example 157],+,+,+,−,−,−,+,−
"CCCCc1nc2c(N)nc3cccnc3c2n1CCCCNC(=O)OCC [Example 58, Ethyl N-[4-(4-Amino-2-butyl-1H-imidazo[4,5-c][1,5]naphthyridin-1-yl)butyl]carbamate]",+,+,+,−,−,+,+,−
CCCCc1nc2c(N)nc3cccnc3c2n1CCCCNC(=O)c1ccc(F)cc1 [Example 166],−,+,+,−,−,+,+,−
CCCCc1nc2c(N)nc3cccnc3c2n1CCNC(=O)c1ccc(Br)o1 [Example 206],+,+,+,+,−,+,+,+
CCCCc1nc2c(N)nc3cccnc3c2n1CCNC(=O)Cc1ccsc1 [Example 191],,+,+,+,,−,+,+
"CCCCc1nc2c(N)nc3cccnc3c2n1CCCCNC(=O)c1cccnc1 [Example 54, N^3-[4-(4-Amino-2-butyl-1H-imidazo[4,5-c][1,5]naphthyridin-1-yl)butyl]nicotinamide]",,+,+,+,,+,+,+
CCCCc1nc2c(N)nc3cccnc3c2n1CCNC(=O)Cc1ccc(OC)cc1 [Example 152],−,−,+,+,−,−,+,+
CCCCc1nc2c(N)nc3cccnc3c2n1CCCCNC(=O)c1ccc(C#N)cc1 [Example 176],−,+,+,+,−,−,+,+
CCCCc1nc2c(N)nc3cccnc3c2n1CCNC(=O)CC1CCCC1 [Example 124],,+,+,+,,−,+,+
CCCCc1nc2c(N)nc3cccnc3c2n1CCCCNC(=O)CCCCC(=O)OC [Example 182],−,+,+,+,−,+,+,−
CCCCc1nc2c(N)nc3cccnc3c2n1CCNC(=O)c1ccc(C(=O)OC)cc1 [Example 150],−,−,+,+,−,−,+,+
CCCCc1nc2c(N)nc3cccnc3c2n1CCCCNC(=O)c1c(F)c(F)c(F)c(F)c1F [Example 163],+,+,+,+,−,+,+,−
CCCCc1nc2c(N)nc3cccnc3c2n1CCNC(=O)c1ccc(Br)s1 [Example 204],+,+,+,+,−,+,+,+
CCCCc1nc2c(N)nc3cccnc3c2n1CCNC(=O)c1c(C)cc(C)cc1C [Example 143],,−,+,+,,−,±,−
"CCCCc1nc2c(N)nc3cccnc3c2n1CCCCNC(=O)Nc1ccccc1 [Example 47, N-[4-(4-Amino-2-butyl-1H-imidazo[4,5-c][1,5]naphthyridin-1-yl)butyl]-N′-phenylurea]",−,+,+,±,−,+,+,+
CCCCc1nc2c(N)nc3cccnc3c2n1CCCCNC(=O)c1cc(OC)c(OC)c(OC)c1 [Example 162],+,+,+,+,−,+,+,+
"CCCCc1nc2c(N)nc3cccnc3c2n1CCCCNC(=O)Cc1ccccc1 [Example 55, N-[4-(4-Amino-2-butyl-1H-imidazo[4,5-c][1,5]naphthyridin-1-yl)butyl]phenylaceatamide]",,+,+,+,,+,+,−
CCCCc1nc2c(N)nc3cccnc3c2n1CCCCNC(=O)CC(C)(C)C [Example 172],+,+,+,+,−,+,+,+
